pEC50: −log10 of the molar value.
test system: not listed separately; test: Inhibition of glucose-induced insulin secretion from Wistar rat pancreatic islet assessed as residual insulin release at 50 uM after 90 mins by radiometric analysis; type: functional

Row | SMILES | Activity [%]
1 | CC1(C)CC(NC(=O)C2=NS(=O)(=O)c3ccccc3N2)c2cc(F)ccc2O1 (centres undefined) | 77.3
2 | Cc1ccc2c(c1)S(=O)(=O)N=C(C(=O)NC1CC(C)(C)Oc3ccc(F)cc31)N2 (centres undefined) | 96.9
3 | CC1(C)CC(NC(=O)C2=NS(=O)(=O)c3ccccc3N2)c2cc(Br)ccc2O1 (centres undefined) | 86.7
4 | Cc1ccc2c(c1)S(=O)(=O)N=C(C(=O)NC1CC(C)(C)Oc3ccc(Br)cc31)N2 (centres undefined) | 91.4
5 | CC1(C)CC(NC(=O)C2=NS(=O)(=O)c3ccccc3N2)c2cc([N+](=O)[O-])ccc2O1 (centres undefined) | 77.9
6 | CC1(C)CC(NC(=O)C2=NS(=O)(=O)c3cc(Cl)ccc3N2)c2cc([N+](=O)[O-])ccc2O1 (centres undefined) | 77
7 | Cc1ccc2c(c1)S(=O)(=O)N=C(C(=O)NC1CC(C)(C)Oc3ccc([N+](=O)[O-])cc31)N2 (centres undefined) | 75.7
8 | CC1(C)Oc2ccc(C#N)cc2[C@@H](N2CCCC2=O)[C@@H]1O (relative stereo) [LEVCROMAKALIM] | 77.2
9 | CC1=Nc2ccc(Cl)cc2S(=O)(=O)N1 [DIAZOXIDE] | 28.8
10 | CC(N/C(=N\C#N)Nc1ccncc1)C(C)(C)C (centres undefined) [PINACIDIL ANHYDROUS] | 92.1

test system: not listed separately; test: Myorelaxant effect in oxytoxin-induced Wistar rat uterus smooth muscle assessed as residual contractile activity by continuous superfusion of oxytocin at 50 uM; type: functional

Row | SMILES | Activity [%]
11 | CC1(C)CC(NC(=O)C2=NS(=O)(=O)c3ccccc3N2)c2cc(F)ccc2O1 (centres undefined) | 97.9
12 | Cc1ccc2c(c1)S(=O)(=O)N=C(C(=O)NC1CC(C)(C)Oc3ccc(F)cc31)N2 (centres undefined) | 132.4
13 | CC1(C)CC(NC(=O)C2=NS(=O)(=O)c3ccccc3N2)c2cc(Br)ccc2O1 (centres undefined) | 44.3
14 | Cc1ccc2c(c1)S(=O)(=O)N=C(C(=O)NC1CC(C)(C)Oc3ccc(Br)cc31)N2 (centres undefined) | 44.5
15 | CC1(C)CC(NC(=O)C2=NS(=O)(=O)c3ccccc3N2)c2cc([N+](=O)[O-])ccc2O1 (centres undefined) | 62.4
16 | CC1(C)CC(NC(=O)C2=NS(=O)(=O)c3cc(Cl)ccc3N2)c2cc([N+](=O)[O-])ccc2O1 (centres undefined) | 70.9
17 | Cc1ccc2c(c1)S(=O)(=O)N=C(C(=O)NC1CC(C)(C)Oc3ccc([N+](=O)[O-])cc31)N2 (centres undefined) | 94.9
18 | CC1=Nc2ccc(Cl)cc2S(=O)(=O)N1 [DIAZOXIDE] | 76.3
19 | CC(N/C(=N\C#N)Nc1ccncc1)C(C)(C)C (centres undefined) [PINACIDIL ANHYDROUS] | 35.5

test system: not listed separately; test: Myorelaxant effect in oxytoxin-induced Wistar rat uterus smooth muscle assessed as residual contractile activity by continuous superfusion of oxytocin at 10 uM; type: functional

Row | SMILES | Activity [%]
20 | CC1(C)CC(NC(=O)C2=NS(=O)(=O)c3ccccc3N2)c2cc(F)ccc2O1 (centres undefined) | 123.7
21 | Cc1ccc2c(c1)S(=O)(=O)N=C(C(=O)NC1CC(C)(C)Oc3ccc(F)cc31)N2 (centres undefined) | 116.6
22 | CC1(C)CC(NC(=O)C2=NS(=O)(=O)c3ccccc3N2)c2cc(Br)ccc2O1 (centres undefined) | 60.1
23 | Cc1ccc2c(c1)S(=O)(=O)N=C(C(=O)NC1CC(C)(C)Oc3ccc(Br)cc31)N2 (centres undefined) | 76.8
24 | CC1(C)CC(NC(=O)C2=NS(=O)(=O)c3ccccc3N2)c2cc([N+](=O)[O-])ccc2O1 (centres undefined) | 96.8
25 | CC1(C)CC(NC(=O)C2=NS(=O)(=O)c3cc(Cl)ccc3N2)c2cc([N+](=O)[O-])ccc2O1 (centres undefined) | 97.9
26 | Cc1ccc2c(c1)S(=O)(=O)N=C(C(=O)NC1CC(C)(C)Oc3ccc([N+](=O)[O-])cc31)N2 (centres undefined) | 103.9
27 | CC1=Nc2ccc(Cl)cc2S(=O)(=O)N1 [DIAZOXIDE] | 93.8
28 | CC(N/C(=N\C#N)Nc1ccncc1)C(C)(C)C (centres undefined) [PINACIDIL ANHYDROUS] | 58.1

test system: Aorta; test: Myorelaxant activity in Wistar rat aorta rings assessed as inhibition of KCl-induced contraction; type: functional, tissue-based

Row | SMILES | pEC50
29 | CC1(C)CC(NC(=O)C2=NS(=O)(=O)c3ccccc3N2)c2cc(F)ccc2O1 (centres undefined) | < 4.52
30 | Cc1ccc2c(c1)S(=O)(=O)N=C(C(=O)NC1CC(C)(C)Oc3ccc(F)cc31)N2 (centres undefined) | < 4.52
31 | CC1(C)CC(NC(=O)C2=NS(=O)(=O)c3ccccc3N2)c2cc(Br)ccc2O1 (centres undefined) | < 4.52
32 | Cc1ccc2c(c1)S(=O)(=O)N=C(C(=O)NC1CC(C)(C)Oc3ccc(Br)cc31)N2 (centres undefined) | < 4.52
33 | CC1(C)CC(NC(=O)C2=NS(=O)(=O)c3ccccc3N2)c2cc([N+](=O)[O-])ccc2O1 (centres undefined) | < 4.52
34 | CC1(C)CC(NC(=O)C2=NS(=O)(=O)c3cc(Cl)ccc3N2)c2cc([N+](=O)[O-])ccc2O1 (centres undefined) | < 4.52
35 | Cc1ccc2c(c1)S(=O)(=O)N=C(C(=O)NC1CC(C)(C)Oc3ccc([N+](=O)[O-])cc31)N2 (centres undefined) | < 4.52

test system: not listed separately; test: Myorelaxant effect in oxytoxin-induced Wistar rat uterus smooth muscle assessed as residual contractile activity by continuous superfusion of oxytocin at 100 uM; type: functional

Row | SMILES | Activity [%]
36 | CC1(C)CC(NC(=O)C2=NS(=O)(=O)c3ccccc3N2)c2cc(F)ccc2O1 (centres undefined) | 76.8
37 | Cc1ccc2c(c1)S(=O)(=O)N=C(C(=O)NC1CC(C)(C)Oc3ccc(F)cc31)N2 (centres undefined) | 124.4
38 | CC1(C)CC(NC(=O)C2=NS(=O)(=O)c3ccccc3N2)c2cc(Br)ccc2O1 (centres undefined) | 19.9
39 | Cc1ccc2c(c1)S(=O)(=O)N=C(C(=O)NC1CC(C)(C)Oc3ccc(Br)cc31)N2 (centres undefined) | 6.6
40 | CC1(C)CC(NC(=O)C2=NS(=O)(=O)c3ccccc3N2)c2cc([N+](=O)[O-])ccc2O1 (centres undefined) | 34.7
41 | CC1(C)CC(NC(=O)C2=NS(=O)(=O)c3cc(Cl)ccc3N2)c2cc([N+](=O)[O-])ccc2O1 (centres undefined) | 34.7
42 | Cc1ccc2c(c1)S(=O)(=O)N=C(C(=O)NC1CC(C)(C)Oc3ccc([N+](=O)[O-])cc31)N2 (centres undefined) | 90.6
43 | CC1=Nc2ccc(Cl)cc2S(=O)(=O)N1 [DIAZOXIDE] | 67.7
44 | CC(N/C(=N\C#N)Nc1ccncc1)C(C)(C)C (centres undefined) [PINACIDIL ANHYDROUS] | 38.1

— ChEMBL document CHEMBL2040802, “Synthesis and pharmacological activity of N-(2,2-dimethyl-3,4-dihydro-2H-1-benzopyran-4-yl)-4H-1,2,4-benzothiadiazine-3-carboxamides 1,1-dioxides on rat uterus, rat aorta and rat pancreatic β-cells” (Eur J Med Chem, 2012)
